Results reported in patent publication US20050267182A1, “Urea derivatives as FLT-3 modulators” (Ambit Biosciences Corporation, priority 2003, published 2005).

How the values were obtained:
[1] = target: T1, FLT3 (Homo sapiens, UniProt P36888); assay: Binding constant (Kd) measurement, phage-displayed kinase competition binding assay; conditions: for Binding Assay: FLT3(JMminus): FLT3(JMminus) construct
T1 construct: FLT3(DKIN); made in house
T1 sequence (P36888 610-943 limits assumed): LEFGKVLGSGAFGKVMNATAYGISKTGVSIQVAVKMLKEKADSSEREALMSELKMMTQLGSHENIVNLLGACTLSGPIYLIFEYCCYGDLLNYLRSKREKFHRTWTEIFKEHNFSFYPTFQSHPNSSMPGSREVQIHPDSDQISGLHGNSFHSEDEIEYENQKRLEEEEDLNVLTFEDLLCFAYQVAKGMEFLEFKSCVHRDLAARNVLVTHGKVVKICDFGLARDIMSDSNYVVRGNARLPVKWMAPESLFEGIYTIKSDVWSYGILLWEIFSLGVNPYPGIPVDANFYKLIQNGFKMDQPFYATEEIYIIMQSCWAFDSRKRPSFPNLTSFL
Description: Binding Constant (Kd) Measurements for Small-Molecule-Kinase Interactions
The term “ND” represents non-determined values.

[2] = system: MV4,11 cells; assay: FLT3 assay using MV4,11 cells (cellular proliferation, MTS); assay type: cell-based, human; conditions: cell assay code CS0001
Method: The ability of FLT3 kinase inhibitors to inhibit cellular proliferation was also examined. MV4:11 was a cell line derived from a patient with acute myelogenous leukemia.
FLT3 Assay Using MV4,11 Cells
MV4,11 cells were grown in an incubator @ 37° C. in 5% CO2 in Medium 2 (RPMI, 10% FBS, 4 mM glutamine, Penn/Strep). The cells were counted daily and the cell density was kept between 1e5 and 8e5 cells/ml.
Day One: Enough cells were harvested for experiments to be conducted in 50 ml conical tubes. The harvested cells were spun at 500 g for 5 min at 4° C., the supernatant was then aspirated and the cells were resuspended in the starting volume of 1×PBS. The cells were again spun at 500 g for 5 min at 4° C. and the supernatant again aspirated. The cells were then resuspended in medium 3 (DMEM w/ glut, 10% FBS, Penn/Strep) to a density of 4e5 cells/ml and incubated (37° C. in 5% CO2 O/N.
Day Two: The cells were counted and enough medium 3 was added to decrease density to 2e5 cells/ml. 50 ul (10,000 cells) was aliquoted into each well of a 96 well optical plate using multichannel pipetman. The compound plate was then set up by aliquoting 3 μl of negative control (DMSO) into column 1 of a 96 well 300 ul polypropylene plate, aliquoting 3 μt of positive control (10 mM AB20121) into column 12 of plate, and aliquoting 3 μl of appropriate compounds from serial dilutions into columns 2-11. To each well, 150 μl of Medium 3 was added and 50 μl of compound/medium mixture from compound plate into rows of optical plate in duplicate. The cells were then incubated @ 37° C. in 5% CO2 for 3 days.
Day Five: MTS was thawed in a H2O bath. 20 μl of MTS was added to each well of optical plate and the cells were incubated (37° C. in 5% CO2 for 2 hours. The plate was then placed on a plate shaker for 30 seconds on high speed.

| Binding Assay: FLT3(DKIN) ([1]; FLT3(DKIN) construct) | SMILES | further results |
| --- | --- | --- |
| + + + + | CC(C)(C)c1cc(NC(=O)Nc2ccc(NC(=O)c3cccnc3)cc2)co1 [Compound N1] | Cell Assay: CS0001:IC50 [2]: + + + |
| + + + + | CC(C)(C)c1cc(NC(=O)Nc2ccc(NC(=O)c3cc(Cl)nnc3Cl)cc2)no1 [Compound N174] | Binding Assay: FLT3(JMminus) [1]: + + +; Cell Assay: CS0001:IC50 [2]: + + and + + + |
|  | COc1ccc(C(=O)c2c[nH]c(C(=O)Nc3ccc(NC(=O)Nc4cc(C(C)(C)C)on4)cc3)c2)cc1 [Compound N177] | Binding Assay: FLT3(JMminus) [1]: + + +; Cell Assay: CS0001:IC50 [2]: + + |
| + + + | Cc1cc(C)c(C(=O)Nc2ccc(NC(=O)Nc3cc(C(C)(C)C)on3)cc2)c(C)c1 [Compound N31] | Cell Assay: CS0001:IC50 [2]: + + |
| + + + + | CC(C)(C)c1cc(NC(=O)Nc2ccc(OCc3c(F)cccc3F)cc2)no1 [Compound G21] | Cell Assay: CS0001:IC50 [2]: + + + + |
| + + + | Cc1nnsc1C(=O)Nc1ccc(NC(=O)Nc2cc(C(C)(C)C)on2)cc1 [Compound N18] | Cell Assay: CS0001:IC50 [2]: + + |
| + + | CC1CCCN(CCOc2ccc(NC(=O)Nc3cc(C(C)(C)C)on3)cc2)C1 (centres unmarked) [Compound G44] | Cell Assay: CS0001:IC50 [2]: + + |
| + + + + | Cc1ccc(NC(=O)c2ccc(NC(=O)Nc3cc(C(C)(C)C)on3)cc2)cc1 [Compound N84] | Cell Assay: CS0001:IC50 [2]: + + + + |
| + + | CC(C)(C)c1cc(NC(=O)Nc2ccc(NC(=O)c3ccc(Br)cc3)cc2)no1 [Compound N27] | Cell Assay: CS0001:IC50 [2]: + + |
|  | CC(C)(C)c1cc(NC(=O)Nc2ccc(NC(=O)Cc3noc4ccccc34)cc2)no1 [Compound N80] | Binding Assay: FLT3(JMminus) [1]: + + +; Cell Assay: CS0001:IC50 [2]: + + + |
| + + + + | Cc1nc(C(=O)Nc2ccc(NC(=O)Nc3cc(C(C)(C)C)on3)cc2)c(C(F)(F)F)o1 [Compound N55] | Cell Assay: CS0001:IC50 [2]: + + + |
| + + + + | Cc1nc(N)cc(Nc2ccc(NC(=O)Nc3cc(C(C)(C)C)on3)cc2)n1 [Compound O10] | Cell Assay: CS0001:IC50 [2]: + + + |
| + + + | CC(C)(C)c1cc(NC(=O)Nc2ccc(NC(=O)C3=Cc4cc(F)cc(S(C)(=O)=O)c4C3)cc2)no1 [Compound N58] | Cell Assay: CS0001:IC50 [2]: + + + |
| + + | Cc1ccc(-n2nc(C(C)(C)C)cc2NC(=O)Nc2ccc(C(C)C)cc2)cc1 [Compound D1, 1-(3-tert-butyl-1-p-tolyl-1H-pyrazol-5-yl)-3-(4-isopropylphenyl)urea] |  |
| + + + + | CC(Oc1ccc(NC(=O)Nc2cc(C(C)(C)C)on2)cc1)c1ccccc1 (centres unmarked) [Compound G17] |  |
| + + + | CC(C)(C)c1cc(NC(=O)Nc2ccc(C(=O)NCc3ccc4c(c3)OCO4)cc2)no1 [Compound N97] |  |
| + + + | CN1CN(c2ccc(OCc3ccccc3)cc2)C(=O)N(c2cc(C(C)(C)C)on2)C1 [Compound E4] |  |
| + + + + | O=C(Nc1ccc(Cl)cc1)Nc1cc(C2CC2)nn1-c1ccccc1 [Compound D2] |  |
| + + + | O=C(Nc1ccc(Cl)cc1)Nc1cc(C2CC2)nn1-c1ccccc1 [Compound D10] |  |

| Binding Assay: FLT3(DKIN) ([1]; FLT3(DKIN) construct) | SMILES | further results |
| --- | --- | --- |
| + + + | COc1ccc(N(N)C(=O)Nc2cc(C(C)(C)C)on2)cc1 [Compound J14] |  |
| + + + | CC(C)(C)c1cc(NC(=O)NN2CCCCC2)no1 [Compound Z57] |  |
| + + + + | Cc1ccc(NC(=O)Nc2cc(C(F)(F)F)cc(Cl)n2)cc1 [Compound W1] |  |
| + + | Cc1c(NC(=O)Nc2cc(C(C)(C)C)on2)c(=O)n(-c2ccccc2)n1C [Compound Z45] |  |
| + + + | CSc1ccc(NC(=O)Nc2cc(C(C)(C)C)no2)cc1 [Compound A39] |  |
| + + + | O=C(Nc1ccc(Cl)cc1)Nc1ccc(-n2nc(Br)c(Br)c2Br)cc1 [Compound Z49] |  |
| + + + | C/C=C/C(=O)Nc1ccc(NC(=O)Nc2cc(C(C)(C)C)on2)cc1 [Compound N93] |  |
| + + | CC(C)(C)c1cc(NC(=O)Nc2ccc(OC(F)F)cc2)no1 [Compound A12] |  |
| + + + + | CSc1ccc(NC(=O)Nc2cc(C(C)(C)C)on2)cc1 [Compound A37] |  |
| + + + + | Cc1ccc(CNc2ccc(NC(=O)Nc3cc(C(C)(C)C)on3)cc2)cc1 [Compound O9] |  |
| + + + + | CC(C)(C)c1cc(NC(=O)Nc2ccc(-c3ccccc3)cc2)no1 [Compound A23] |  |
| + + + | CC(C)(C)c1cc(NC(=O)Nc2ccc(O)cc2)no1 [Compound A31] |  |
| + + + + | CC(C)(C)c1cc(NC(=O)Nc2ccc(C(N)=O)cc2)no1 [Compound N86] |  |
| + + + | CC(C)(C)c1cc(NC(=O)Nc2ccc(C(=O)NCc3ccccc3)cc2)no1 [Compound N89] |  |
| + + | CC(C)c1ccc(NC(=O)Nc2cc(C(C)(C)C)no2)cc1 [Compound A11] |  |
| + + | Cc1ccc(S(=O)(=O)Nc2ccc(NC(=O)Nc3cc(C(C)(C)C)on3)cc2)cc1 [Compound V2] |  |
| + + + | COc1ccc(N(C)C(=O)Nc2cc(C(C)(C)C)on2)cc1 [Compound J10] |  |
| + + + | CC(C)(C)c1cc(NC(=O)Nc2cc(C(C)(C)C)on2)on1 [Compound A54] |  |
| + + + | CC(C)(C)c1cc(NC(=O)Nc2ccc(OCCN3CCOCC3)c3ccccc23)no1 [Compound K1] |  |

| Binding Assay: FLT3(DKIN) ([1]; FLT3(DKIN) construct) | SMILES | further results |
| --- | --- | --- |
| + + + + | CC(C)(C)c1cc(NC(=O)Nc2ccc(NC(=O)c3c(Cl)cccc3Cl)cc2)no1 [Compound N94] |  |
| + + + + | Cc1ccc(-n2nc(C(C)(C)C)cc2NC(=O)Nc2cc(C(C)(C)C)on2)cc1 [Compound H11] |  |
| + + + | CC(C)(C)c1cc(NC(=O)Nc2ccc(Cl)c(C(F)(F)F)c2)no1 [Compound A1, 1-(5-tert-butylisoxazol-3-yl)-3-(4-chloro-3-(trifluoromethyl)phenyl)urea] |  |
| + + + + | COc1ccc(NC(=O)Nc2cc(C(C)(C)C)on2)cc1 [Compound A29] |  |
| + + + | C[C@H](NC(=O)c1ccc(NC(=O)Nc2cc(C(C)(C)C)on2)cc1)c1ccccc1 [Compound N88] |  |
| + + + | CC(C)(C)c1cc(NC(=O)Nc2ccc(Cl)cc2)no1 [Compound A27] |  |
| + + + + | COc1ccc(NC(=O)Nc2cc(C(C)(C)C)no2)cc1 [Compound A30] |  |
| + + + | CC(C)(C)c1cc(N2CCCN(c3ccc(OCc4ccccc4)cc3)C2=O)on1 [Compound E2] |  |
| + + + + | CC(C)(C)c1cc(NC(=O)Nc2ccccc2)no1 [Compound A2] |  |
| + + + | CC(C)(C)c1cc(NC(=O)Nc2ccc(Cl)cc2Cl)no1 [Compound A7] |  |
| + + + + | CC(C)(C)c1cc(NC(=O)Nc2ccc(OCC(O)CO)cc2)no1 (centres unmarked) [Compound G28] |  |
|  | CC(=O)NS(=O)(=O)c1ccc(NC(=O)Nc2cc(C(C)(C)C)on2)cc1 [Compound V4] | Kd ([1]; FLT3(DKIN) construct): > 10 µM |
| + + + + | CC(C)(C)c1cc(NC(=O)Nc2ccc(OCc3c(Cl)cccc3Cl)cc2)no1 [Compound G19] |  |
| + + + | O=C(Nc1ccc(OCc2ccccc2)cc1)Nc1cc(C2CC2)nn1-c1ccccc1 [Compound H8] |  |
| + + + | CCOC(=O)NN(C(=O)Nc1cc(C(C)(C)C)on1)c1ccc(OC)cc1 [Compound J13] |  |
| + + + | Cc1cc(NC(=O)Nc2ccc(OCc3ccccc3)cc2)n(-c2ccccc2)n1 [Compound H4] |  |
| + + + | Cn1nc(C(C)(C)C)cc1NC(=O)Nc1ccc(F)cc1 [Compound Z19] |  |
| + + | Cn1nc(C2CC2)cc1NC(=O)Nc1ccc(OCc2ccccc2)cc1 [Compound H7] |  |
| + + + | CC(C)(C)c1cc(NC(=O)Nc2ccc(NC(=O)c3c(F)cccc3C(F)(F)F)cc2)no1 [Compound N95] |  |
